According to paper PMC6255697, “The major nectar protein of Brassica rapa is a non-specific lipid transfer protein, BrLTP2.1, with strong antifungal activity” (Journal of Experimental Botany, 2018):

What was measured:
BrLTP2.1 [1] = biological target: T1, BrLTP2.1 (Brassica rapa, UniProt A0A8D9LMK4); assay: TNS displacement fluorescence; type: binding; conditions: 2.5 uM protein and 2.5 uM TNS, ligand 0-10 uM, pH 7.0; competitive with TNS
T1 construct: gene BRAPAZ1V2_A03P14030.2; predicted mature protein, residues 27-98 of 98 (signal peptide removed), amplified from genomic DNA; N-terminal T7-tag and C-terminal His6 kept; pET21a(+) in E. coli SHuffle T7 Express lysY
T1 sequence (A0A8D9LMK4 entry or part of it): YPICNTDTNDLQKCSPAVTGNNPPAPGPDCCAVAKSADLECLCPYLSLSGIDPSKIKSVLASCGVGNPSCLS

BrLTP2.1 [2] = biological target: T1, BrLTP2.1; assay: TNS displacement fluorescence; protein lipid overlay; type: binding; conditions: 2.5 uM protein and 2.5 uM TNS, ligand 0-10 uM, pH 7.0; competitive with TNS

CCCCCCCCCCCCCCCC(=O)O [palmitic acid]
TNS displacement fluorescence (BrLTP2.1 [1]): Each of the three free fatty acids tested strongly reduced TNS-dependent fluorescence

CCCCCCCCCCCCCCCCCC(=O)O [stearic acid]
TNS displacement fluorescence; protein lipid overlay (BrLTP2.1 [2]): Each of the three free fatty acids tested strongly reduced TNS-dependent fluorescence
